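A five-concentration, 48-hour dose response in 96-well plates underlies each endpoint, interpolated linearly between surrounding concentrations. At the GI50, growth is halved. The concentration for full growth arrest is given as TGI.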
tested on: HL-60(TB) leukemia; assay: NCI-60 cell line screen, 48 h

| Structure (SMILES) | GI50 | TGI |
| --- | --- | --- |
| COc1cc2c3c(n(CCCCOC(=O)C(Cl)(Cl)Cl)c(=O)c2cc1OC)-c1cc2c(cc1C3=O)OCO2 | > 100 µM | > 100 µM |
| CC(C)c1cc2c(O)c(c1)Cc1cc(C(C)C)cc(c1O)Cc1cc(C(C)C)cc(c1O)Cc1cc(C(C)C)cc(c1O)C2 | – | > 100 µM |
| COc1ccc(/C=C\c2cc(OC)c(OC)c(OC)c2)cc1OC(=O)NCCN(C)C | – | 0.00338 µM |
| CCCCOC(=O)NC(=O)c1cn(C2CCCCC2)c(=O)[nH]c1=O | – | > 100 µM |
| CC(C)CCCC(=O)CCCCCCC(=O)CCN(O)C(=O)C(N)CO (configuration not stated) | – | 60.2 µM |
| Cc1ccc(NC(=O)NCCCOc2ccc(N3C(N)=NC(N)=NC3(C)C)cc2Cl)cc1S(=O)(=O)F | 0.775 µM | > 100 µM |
| COc1cc2c(c(OC)c1)C1(CC(CC#N)C2)SCCS1 (configuration not stated) | – | > 100 µM |
| CCOC(=O)CCn1[nH]c(=O)c(Cl)c(Cl)c1=O | – | > 100 µM |
| COc1ccccc1Cn1cc2c(c1-c1ccccc1)CCc1cnoc1-2 | 1.32 µM | 8.36 µM |
| COc1ccc(CNc2nc3cc(C(F)(F)F)ccc3nc2C)cc1OC | – | 50.6 µM |
| C/C=C1/C(=C/c2[nH]c(/C=c3\[nH]/c(=C/C4=NC(=O)C(CC)=C4C)c(C)c3CCC(=O)O)c(CCC(=O)O)c2C)NC(=O)C1C (configuration not stated) | > 150 µg/mL | > 150 µg/mL |
| C/C=C(\C)CC/C=C/CO[Si](C)(C)C(C)(C)C | – | 52.1 µM |
| N#CCc1ccc(C(C#N)/C(CCCC(=O)Nc2cccc([N+](=O)[O-])c2)=N/NC(N)=S)cc1 (configuration not stated) | – | > 100 µM |
| COC(C(O)c1ccc2c(c1)OCO2)P(=O)(c1ccccc1)c1ccccc1 (configuration not stated) | – | > 100 µM |
| CNc1nc(N)c(N=O)c(Nc2ccc(Br)cc2)n1 | – | > 100 µM |
| COc1ccc(-c2nnc(COc3ccc(NC(=O)Nc4ccc(Cl)c(C(F)(F)F)c4)cc3F)o2)cc1 | 2.41 µM | 6.12 µM |
| CC(C)c1ccc(C(c2ccc(OCC(=O)O)cc2)c2ccc(C(C)C)cc(=O)c2O)c(O)c(=O)c1 | – | 15 µM |
| CN1C(=O)c2ccccc2NC(=O)C12O[C@@H]2c1cccc(O)c1 (some centres not stated) | – | > 100 µM |
| N#C/C(=C\c1cc2ccccc2c2ccccc12)c1ccccc1 | – | 14.8 µM |
| CCOc1ccc2c(c1)[n+]([O-])c(-c1nc3ccccc3s1)c(N)[n+]2[O-] | – | > 100 µM |
| CSc1nc2cc(S(=O)(=O)N3CCCCC3)ccc2s1 | – | > 100 µM |
| COc1ncc(-c2ccc3ncnc(Nc4cccc(Cl)c4)c3c2)cc1NS(=O)(=O)CCN1CCOCC1 | 0.38 µM | > 100 µM |
| c1cc[c]([Pb]([c]2ccccc2)[c]2ccccc2)cc1 | 41.9 µM | > 100 µM |
| COc1ccc2nc3cc(Cl)ccc3c(NCCN)c2c1 | 2.16 µM | 4.67 µM |
| CCCCN1CSC(=S)N(Cc2ccccc2)C1 | – | 19.4 µM |
| CC(=O)N1C/C(=C\c2ccc(N(C)C)cc2)C(=O)/C(=C/c2ccc(N(C)C)cc2)C1 | – | > 100 µM |
| Cc1[nH]c2ccccc2c1C1Cc2ccccc2N1C(=O)/C(Cl)=C/c1ccccc1 (configuration not stated) | – | > 100 µM |

tested on: CAKI-1 renal; assay: NCI-60 cell line screen, 48 h

| Structure (SMILES) | TGI [µM] | GI50 [µM] |
| --- | --- | --- |
| COc1ccc(/C(Cl)=C(\C=O)c2ccc([N+](=O)[O-])cc2)cc1 | 33.8 | – |
| COc1ccc(-n2cc(-c3cc(OC)c(OC)c(OC)c3)[nH]c2=O)cc1Cl | > 100 | > 100 |
| Cc1ccc(-c2cc(=O)c3cc(C)c(C)c(C(=O)O)c3o2)cc1C | 89.5 | – |
| O=C(/C=C/c1c(O)ccc2ccccc12)c1ccccc1 | > 100 | – |
| Cc1nc2ccccc2c(=O)n1-c1ccccc1F | > 100 | – |
| Fc1ccc(C2SCc3nc4ccccc4n32)cc1Cl (configuration not stated) | 38.4 | – |
| C=C1CC[C@@H]2[C@](C)(COC(C)=O)[C@H](OC(C)=O)CC[C@@]2(C)[C@@H]1CC(Nc1ccc(S(=O)(=O)Nc2ncccn2)cc1)C1=CCOC1=O (some centres not stated) | 4.04 | 1.74 |
| C=C1C(=O)O[C@H]2[C@H]1CC/C(COC(=O)c1cc3ccccc3s1)=C\CC[C@@]1(C)O[C@@H]21 | 2.99 | 1.46 |
| CC(C)N1CN(C(C(=O)N[C@@H]2C(=O)N3C2SC(C)(C)C3C(=O)O)c2ccccc2)CSC1=S (some centres not stated) | > 100 | – |
| COc1cc2c3c(n(CCCCOC(=O)C(Cl)(Cl)Cl)c(=O)c2cc1OC)-c1cc2c(cc1C3=O)OCO2 | > 100 | 4.61 |
| CC(C)c1cc2c(O)c(c1)Cc1cc(C(C)C)cc(c1O)Cc1cc(C(C)C)cc(c1O)Cc1cc(C(C)C)cc(c1O)C2 | > 100 | – |
| COc1ccc(/C=C\c2cc(OC)c(OC)c(OC)c2)cc1OC(=O)NCCN(C)C | > 100 | – |
| CC(C)CCCC(=O)CCCCCCC(=O)CCN(O)C(=O)C(N)CO (configuration not stated) | 39.4 | – |
| Cc1ccc(NC(=O)NCCCOc2ccc(N3C(N)=NC(N)=NC3(C)C)cc2Cl)cc1S(=O)(=O)F | > 100 | 70 |
| CC[CH2][Sn]([Cl])([Cl])[CH2]CC.Oc1ccccc1C=NCCN=Cc1ccccc1O | 12.7 | 2.46 |
| COc1cc2c(c(OC)c1)C1(CC(CC#N)C2)SCCS1 (configuration not stated) | > 100 | – |
| CCOC(=O)CCn1[nH]c(=O)c(Cl)c(Cl)c1=O | > 100 | – |
| COc1ccccc1Cn1cc2c(c1-c1ccccc1)CCc1cnoc1-2 | > 100 | 1.86 |
| COc1ccc(CNc2nc3cc(C(F)(F)F)ccc3nc2C)cc1OC | > 100 | – |
| COc1cccc(/C=C2\C(=O)N(C(=O)c3ccc(NC(C)=O)cc3)N=C2C)c1 | > 100 | – |

| Structure (SMILES) | TGI [µM] | GI50 [µM] |
| --- | --- | --- |
| C/C=C(\C)CC/C=C/CO[Si](C)(C)C(C)(C)C | > 100 | – |
| N#CCc1ccc(C(C#N)/C(CCCC(=O)Nc2cccc([N+](=O)[O-])c2)=N/NC(N)=S)cc1 (configuration not stated) | > 100 | – |
| COC(C(O)c1ccc2c(c1)OCO2)P(=O)(c1ccccc1)c1ccccc1 (configuration not stated) | > 100 | – |
| COc1ccc(-c2nnc(COc3ccc(NC(=O)Nc4ccc(Cl)c(C(F)(F)F)c4)cc3F)o2)cc1 | 29.2 | 4.07 |
| NCCCn1c2c(c3ccc([N+](=O)[O-])cc3c1=O)C(=O)c1cc(Br)ccc1-2 | 0.623 | 0.219 |
| CC(C)c1ccc(C(c2ccc(OCC(=O)O)cc2)c2ccc(C(C)C)cc(=O)c2O)c(O)c(=O)c1 | 18.1 | – |
| CN1C(=O)c2ccccc2NC(=O)C12O[C@@H]2c1cccc(O)c1 (some centres not stated) | > 100 | – |
| N#C/C(=C\c1cc2ccccc2c2ccccc12)c1ccccc1 | > 37.8 | – |
| CCOc1ccc2c(c1)[n+]([O-])c(-c1nc3ccccc3s1)c(N)[n+]2[O-] | > 100 | – |
| COc1ccc2c3c(coc13)C(CCC(=O)O)CC2 (configuration not stated) | > 100 | – |
| CSc1nc2cc(S(=O)(=O)N3CCCCC3)ccc2s1 | > 100 | – |
| COc1ncc(-c2ccc3ncnc(Nc4cccc(Cl)c4)c3c2)cc1NS(=O)(=O)CCN1CCOCC1 | > 100 | 0.345 |
| c1cc[c]([Pb]([c]2ccccc2)[c]2ccccc2)cc1 | > 100 | 30 |
| COc1ccc2nc3cc(Cl)ccc3c(NCCN)c2c1 | 3.06 | 1.65 |
| CCCCN1CSC(=S)N(Cc2ccccc2)C1 | > 100 | – |
| CC(=O)N1C/C(=C\c2ccc(N(C)C)cc2)C(=O)/C(=C/c2ccc(N(C)C)cc2)C1 | > 100 | – |
| CC(C)(C)c1ccc(O)c(CN(Cc2cc(C(C)(C)C)ccc2O)c2ccccc2)c1 | > 100 | – |
| COC1=CC2(C=CC1=O)c1cc(OC)c(OC)cc1CCN2C(=O)c1ccccc1 (configuration not stated) | > 100 | – |
| Cc1[nH]c2ccccc2c1C1Cc2ccccc2N1C(=O)/C(Cl)=C/c1ccccc1 (configuration not stated) | > 100 | – |

tested on: RPMI-8226 leukemia; assay: NCI-60 cell line screen, 48 h

| Structure (SMILES) | TGI [µM] | GI50 [µM] |
| --- | --- | --- |
| COc1ccc(/C(Cl)=C(\C=O)c2ccc([N+](=O)[O-])cc2)cc1 | 8 | – |
| COc1ccc(-n2cc(-c3cc(OC)c(OC)c(OC)c3)[nH]c2=O)cc1Cl | > 100 | > 100 |
| Cc1ccc(-c2cc(=O)c3cc(C)c(C)c(C(=O)O)c3o2)cc1C | > 100 | – |
| O=C(/C=C/c1c(O)ccc2ccccc12)c1ccccc1 | 80.6 | – |
| C=C1CC[C@@H]2[C@](C)(COC(C)=O)[C@H](OC(C)=O)CC[C@@]2(C)[C@@H]1CC(Nc1ccc(S(=O)(=O)Nc2ncccn2)cc1)C1=CCOC1=O (some centres not stated) | 3.12 | 0.541 |
| CC1=N/C(=C\c2cccc([N+](=O)[O-])c2)C(=O)O1 | > 100 | – |
| C=C1C(=O)O[C@H]2[C@H]1CC/C(COC(=O)c1cc3ccccc3s1)=C\CC[C@@]1(C)O[C@@H]21 | 4.79 | 0.566 |
| CC(C)N1CN(C(C(=O)N[C@@H]2C(=O)N3C2SC(C)(C)C3C(=O)O)c2ccccc2)CSC1=S (some centres not stated) | > 100 | – |
| COc1cc2c3c(n(CCCCOC(=O)C(Cl)(Cl)Cl)c(=O)c2cc1OC)-c1cc2c(cc1C3=O)OCO2 | > 100 | > 100 |
| CC(C)c1cc2c(O)c(c1)Cc1cc(C(C)C)cc(c1O)Cc1cc(C(C)C)cc(c1O)Cc1cc(C(C)C)cc(c1O)C2 | > 100 | – |
| CCCCOC(=O)NC(=O)c1cn(C2CCCCC2)c(=O)[nH]c1=O | > 100 | – |
| CC(C)CCCC(=O)CCCCCCC(=O)CCN(O)C(=O)C(N)CO (configuration not stated) | 57.5 | – |

Reference: PubChem BioAssay (NCI)
